In ChEMBL document CHEMBL3991601, “The target landscape of clinical kinase drugs” (Science, 2017):
Active and inactive are the calls of the source.

Legend:
[1] = target: Dual specificity tyrosine-phosphorylation-regulated kinase 1A (Homo sapiens, UniProt Q13627)
[2] = target: STE20-like serine/threonine-protein kinase (Homo sapiens, UniProt Q9H2G2)
Midasin = Midasin (Homo sapiens, UniProt Q9NU22)
[3] = target: Mitogen-activated protein kinase kinase kinase kinase 4 (Homo sapiens, UniProt O95819)
[4] = target: GTP-binding nuclear protein Ran (Homo sapiens, UniProt P62826)
[5] = target: T1, Cysteine--tRNA ligase, cytoplasmic (Homo sapiens, UniProt P49589)
T1 sequence (P49589 whole entry): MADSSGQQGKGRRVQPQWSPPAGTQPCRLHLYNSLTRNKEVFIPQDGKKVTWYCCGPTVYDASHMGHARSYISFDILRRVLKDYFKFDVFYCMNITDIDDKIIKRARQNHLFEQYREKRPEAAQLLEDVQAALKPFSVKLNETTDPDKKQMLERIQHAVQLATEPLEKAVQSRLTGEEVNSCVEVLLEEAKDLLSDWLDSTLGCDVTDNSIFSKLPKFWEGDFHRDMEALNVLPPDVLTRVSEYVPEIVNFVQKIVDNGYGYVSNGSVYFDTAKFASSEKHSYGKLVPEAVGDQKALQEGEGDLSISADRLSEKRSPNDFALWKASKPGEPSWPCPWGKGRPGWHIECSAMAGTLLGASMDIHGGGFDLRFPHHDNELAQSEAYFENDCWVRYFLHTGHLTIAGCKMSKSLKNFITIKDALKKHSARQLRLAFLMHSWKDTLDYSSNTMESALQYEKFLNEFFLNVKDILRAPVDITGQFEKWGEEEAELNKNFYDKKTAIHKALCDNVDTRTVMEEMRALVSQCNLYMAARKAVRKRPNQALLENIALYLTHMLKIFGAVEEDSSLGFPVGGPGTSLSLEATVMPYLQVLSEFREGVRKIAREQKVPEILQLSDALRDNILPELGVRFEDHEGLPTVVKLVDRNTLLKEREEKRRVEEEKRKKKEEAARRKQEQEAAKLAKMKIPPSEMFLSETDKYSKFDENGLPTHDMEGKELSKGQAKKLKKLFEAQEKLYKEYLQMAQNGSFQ

[6] = target: Atypical kinase COQ8A, mitochondrial (Homo sapiens, UniProt Q8NI60)
Glycine--tRNA ligase = target: T2, Glycine--tRNA ligase (Homo sapiens, UniProt P41250)
T2 sequence (P41250 whole entry): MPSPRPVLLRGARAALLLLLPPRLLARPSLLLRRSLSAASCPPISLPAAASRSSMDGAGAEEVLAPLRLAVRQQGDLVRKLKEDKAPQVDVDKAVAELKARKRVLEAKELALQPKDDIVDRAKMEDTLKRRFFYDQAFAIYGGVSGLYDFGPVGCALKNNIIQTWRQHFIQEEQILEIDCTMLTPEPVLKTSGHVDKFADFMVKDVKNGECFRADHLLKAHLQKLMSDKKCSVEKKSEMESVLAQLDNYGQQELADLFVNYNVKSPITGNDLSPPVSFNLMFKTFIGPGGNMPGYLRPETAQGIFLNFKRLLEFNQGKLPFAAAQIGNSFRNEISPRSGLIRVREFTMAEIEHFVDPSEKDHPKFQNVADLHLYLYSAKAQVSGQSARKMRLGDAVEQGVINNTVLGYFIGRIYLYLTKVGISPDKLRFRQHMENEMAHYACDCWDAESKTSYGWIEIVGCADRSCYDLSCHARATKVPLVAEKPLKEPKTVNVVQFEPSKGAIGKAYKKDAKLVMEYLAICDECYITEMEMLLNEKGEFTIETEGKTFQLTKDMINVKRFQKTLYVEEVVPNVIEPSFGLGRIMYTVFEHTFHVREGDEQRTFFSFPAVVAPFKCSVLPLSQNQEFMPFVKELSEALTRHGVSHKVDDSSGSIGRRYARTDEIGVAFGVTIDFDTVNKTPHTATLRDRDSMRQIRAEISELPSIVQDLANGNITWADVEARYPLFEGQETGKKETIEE

[7] = target: Serine/threonine-protein kinase MRCK beta (Homo sapiens, UniProt Q9Y5S2)
[8] = target: T3, Mitogen-activated protein kinase 15 (Homo sapiens, UniProt Q8TD08)
T3 sequence (Q8TD08 whole entry): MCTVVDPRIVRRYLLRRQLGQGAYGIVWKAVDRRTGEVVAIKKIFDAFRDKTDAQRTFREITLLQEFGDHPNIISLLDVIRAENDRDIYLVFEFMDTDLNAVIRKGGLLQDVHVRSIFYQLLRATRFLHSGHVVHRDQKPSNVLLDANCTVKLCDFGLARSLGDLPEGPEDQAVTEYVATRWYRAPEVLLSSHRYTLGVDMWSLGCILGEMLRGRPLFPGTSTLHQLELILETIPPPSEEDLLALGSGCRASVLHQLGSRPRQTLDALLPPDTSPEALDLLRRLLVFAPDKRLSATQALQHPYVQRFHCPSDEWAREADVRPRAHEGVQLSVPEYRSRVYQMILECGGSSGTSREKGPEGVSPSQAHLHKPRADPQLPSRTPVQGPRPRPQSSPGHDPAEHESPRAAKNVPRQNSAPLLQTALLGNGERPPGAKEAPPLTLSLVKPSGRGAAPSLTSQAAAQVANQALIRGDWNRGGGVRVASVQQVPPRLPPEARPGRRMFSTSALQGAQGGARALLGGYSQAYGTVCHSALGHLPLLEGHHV

[9] = target: Serine/threonine-protein kinase SIK2 (Homo sapiens, UniProt Q9H0K1)
[10] = target: Casein kinase I isoform epsilon (Homo sapiens, UniProt P49674)
Further: in the data inactive means no Kd found up to 30 µM.

Chain of Serine/threonine-protein kinase MRCK beta (Q9Y5S2 whole entry): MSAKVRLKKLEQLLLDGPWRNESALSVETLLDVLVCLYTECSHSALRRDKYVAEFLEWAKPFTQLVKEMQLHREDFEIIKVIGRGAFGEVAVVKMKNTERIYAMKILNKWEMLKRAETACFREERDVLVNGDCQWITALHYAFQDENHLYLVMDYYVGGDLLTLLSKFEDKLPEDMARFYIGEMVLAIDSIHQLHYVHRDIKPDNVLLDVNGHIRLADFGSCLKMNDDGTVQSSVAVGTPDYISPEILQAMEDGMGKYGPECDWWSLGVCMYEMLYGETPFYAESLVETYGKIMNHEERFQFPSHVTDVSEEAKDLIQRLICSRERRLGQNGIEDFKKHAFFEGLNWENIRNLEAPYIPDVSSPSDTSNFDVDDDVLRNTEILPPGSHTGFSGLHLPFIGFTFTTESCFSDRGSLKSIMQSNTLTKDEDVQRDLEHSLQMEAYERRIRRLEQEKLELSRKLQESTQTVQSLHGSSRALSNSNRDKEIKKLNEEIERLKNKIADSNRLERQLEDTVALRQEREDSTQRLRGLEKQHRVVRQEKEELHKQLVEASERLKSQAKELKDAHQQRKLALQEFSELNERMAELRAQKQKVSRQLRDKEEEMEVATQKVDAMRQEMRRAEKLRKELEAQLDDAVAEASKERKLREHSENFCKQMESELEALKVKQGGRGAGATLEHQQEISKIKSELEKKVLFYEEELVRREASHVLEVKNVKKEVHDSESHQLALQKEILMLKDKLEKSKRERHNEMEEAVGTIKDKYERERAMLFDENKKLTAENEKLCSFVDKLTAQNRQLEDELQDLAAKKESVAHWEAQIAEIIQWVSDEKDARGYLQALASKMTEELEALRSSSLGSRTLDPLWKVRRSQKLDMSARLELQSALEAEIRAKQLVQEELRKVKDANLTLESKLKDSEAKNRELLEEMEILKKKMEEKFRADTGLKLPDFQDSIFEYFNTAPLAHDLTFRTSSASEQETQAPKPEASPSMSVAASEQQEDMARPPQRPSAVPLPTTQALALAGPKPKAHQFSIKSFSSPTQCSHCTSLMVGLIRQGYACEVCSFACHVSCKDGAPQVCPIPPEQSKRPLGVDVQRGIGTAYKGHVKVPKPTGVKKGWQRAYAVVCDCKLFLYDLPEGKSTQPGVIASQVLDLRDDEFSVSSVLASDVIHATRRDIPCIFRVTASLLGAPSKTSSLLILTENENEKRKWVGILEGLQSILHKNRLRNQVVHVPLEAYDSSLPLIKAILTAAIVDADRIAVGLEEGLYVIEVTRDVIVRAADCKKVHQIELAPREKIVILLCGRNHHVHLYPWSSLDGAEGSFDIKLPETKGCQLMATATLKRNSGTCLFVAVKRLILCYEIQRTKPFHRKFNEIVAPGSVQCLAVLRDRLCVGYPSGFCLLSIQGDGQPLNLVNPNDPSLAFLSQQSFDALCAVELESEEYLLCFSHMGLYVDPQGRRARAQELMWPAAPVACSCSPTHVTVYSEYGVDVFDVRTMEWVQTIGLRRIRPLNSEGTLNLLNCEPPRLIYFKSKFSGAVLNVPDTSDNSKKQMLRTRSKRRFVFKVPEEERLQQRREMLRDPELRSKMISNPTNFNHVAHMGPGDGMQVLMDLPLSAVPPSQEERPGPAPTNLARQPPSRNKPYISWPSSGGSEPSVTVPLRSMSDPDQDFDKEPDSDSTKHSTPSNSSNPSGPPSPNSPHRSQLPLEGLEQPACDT
Chain of Mitogen-activated protein kinase kinase kinase kinase 4 (O95819 whole entry): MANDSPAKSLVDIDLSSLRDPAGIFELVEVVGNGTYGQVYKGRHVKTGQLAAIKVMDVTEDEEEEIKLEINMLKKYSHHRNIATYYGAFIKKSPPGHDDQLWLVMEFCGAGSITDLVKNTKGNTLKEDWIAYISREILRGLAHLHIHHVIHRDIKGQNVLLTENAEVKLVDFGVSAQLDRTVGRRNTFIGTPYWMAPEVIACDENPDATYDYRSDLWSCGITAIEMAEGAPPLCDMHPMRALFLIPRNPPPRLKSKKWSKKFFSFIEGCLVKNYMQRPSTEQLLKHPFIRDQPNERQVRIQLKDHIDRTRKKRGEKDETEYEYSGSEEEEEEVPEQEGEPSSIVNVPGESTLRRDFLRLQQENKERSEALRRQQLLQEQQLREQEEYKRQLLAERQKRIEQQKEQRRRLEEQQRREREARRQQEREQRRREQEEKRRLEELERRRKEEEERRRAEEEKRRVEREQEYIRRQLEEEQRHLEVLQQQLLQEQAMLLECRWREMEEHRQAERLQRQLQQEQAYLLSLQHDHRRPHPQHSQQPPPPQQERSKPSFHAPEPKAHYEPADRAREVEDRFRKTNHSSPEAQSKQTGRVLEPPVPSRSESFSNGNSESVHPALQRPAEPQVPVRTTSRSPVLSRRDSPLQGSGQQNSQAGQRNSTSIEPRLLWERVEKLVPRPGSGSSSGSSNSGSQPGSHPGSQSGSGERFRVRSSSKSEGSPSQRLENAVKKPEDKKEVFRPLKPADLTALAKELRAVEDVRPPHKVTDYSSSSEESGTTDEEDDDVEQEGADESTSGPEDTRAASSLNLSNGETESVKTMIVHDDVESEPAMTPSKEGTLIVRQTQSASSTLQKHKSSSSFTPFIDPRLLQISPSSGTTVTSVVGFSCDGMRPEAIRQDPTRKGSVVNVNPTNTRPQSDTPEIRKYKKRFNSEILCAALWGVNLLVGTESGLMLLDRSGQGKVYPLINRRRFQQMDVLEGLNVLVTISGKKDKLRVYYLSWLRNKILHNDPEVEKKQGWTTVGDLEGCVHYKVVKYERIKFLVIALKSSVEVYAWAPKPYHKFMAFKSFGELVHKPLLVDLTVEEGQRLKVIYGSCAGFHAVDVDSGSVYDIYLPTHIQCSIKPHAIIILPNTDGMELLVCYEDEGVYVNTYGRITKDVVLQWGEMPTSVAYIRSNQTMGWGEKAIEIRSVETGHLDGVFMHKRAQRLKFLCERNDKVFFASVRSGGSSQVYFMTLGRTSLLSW
Chain of Atypical kinase COQ8A, mitochondrial (Q8NI60 whole entry): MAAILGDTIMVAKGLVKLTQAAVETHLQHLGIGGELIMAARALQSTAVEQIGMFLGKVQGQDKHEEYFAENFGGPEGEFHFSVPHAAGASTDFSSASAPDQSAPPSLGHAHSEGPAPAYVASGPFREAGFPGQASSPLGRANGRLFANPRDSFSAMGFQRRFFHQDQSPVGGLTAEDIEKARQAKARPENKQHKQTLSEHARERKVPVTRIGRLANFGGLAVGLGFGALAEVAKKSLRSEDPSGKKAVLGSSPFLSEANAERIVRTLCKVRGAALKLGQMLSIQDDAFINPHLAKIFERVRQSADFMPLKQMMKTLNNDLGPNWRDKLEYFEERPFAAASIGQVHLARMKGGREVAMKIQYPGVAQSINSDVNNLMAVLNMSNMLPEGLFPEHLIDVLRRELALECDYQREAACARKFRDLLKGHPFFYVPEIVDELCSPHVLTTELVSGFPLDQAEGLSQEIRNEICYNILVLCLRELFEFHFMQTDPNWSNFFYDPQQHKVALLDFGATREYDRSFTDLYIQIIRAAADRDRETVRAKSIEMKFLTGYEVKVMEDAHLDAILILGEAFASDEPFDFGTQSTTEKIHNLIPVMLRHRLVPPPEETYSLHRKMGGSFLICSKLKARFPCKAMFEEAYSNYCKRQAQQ
Chain of STE20-like serine/threonine-protein kinase (Q9H2G2 whole entry): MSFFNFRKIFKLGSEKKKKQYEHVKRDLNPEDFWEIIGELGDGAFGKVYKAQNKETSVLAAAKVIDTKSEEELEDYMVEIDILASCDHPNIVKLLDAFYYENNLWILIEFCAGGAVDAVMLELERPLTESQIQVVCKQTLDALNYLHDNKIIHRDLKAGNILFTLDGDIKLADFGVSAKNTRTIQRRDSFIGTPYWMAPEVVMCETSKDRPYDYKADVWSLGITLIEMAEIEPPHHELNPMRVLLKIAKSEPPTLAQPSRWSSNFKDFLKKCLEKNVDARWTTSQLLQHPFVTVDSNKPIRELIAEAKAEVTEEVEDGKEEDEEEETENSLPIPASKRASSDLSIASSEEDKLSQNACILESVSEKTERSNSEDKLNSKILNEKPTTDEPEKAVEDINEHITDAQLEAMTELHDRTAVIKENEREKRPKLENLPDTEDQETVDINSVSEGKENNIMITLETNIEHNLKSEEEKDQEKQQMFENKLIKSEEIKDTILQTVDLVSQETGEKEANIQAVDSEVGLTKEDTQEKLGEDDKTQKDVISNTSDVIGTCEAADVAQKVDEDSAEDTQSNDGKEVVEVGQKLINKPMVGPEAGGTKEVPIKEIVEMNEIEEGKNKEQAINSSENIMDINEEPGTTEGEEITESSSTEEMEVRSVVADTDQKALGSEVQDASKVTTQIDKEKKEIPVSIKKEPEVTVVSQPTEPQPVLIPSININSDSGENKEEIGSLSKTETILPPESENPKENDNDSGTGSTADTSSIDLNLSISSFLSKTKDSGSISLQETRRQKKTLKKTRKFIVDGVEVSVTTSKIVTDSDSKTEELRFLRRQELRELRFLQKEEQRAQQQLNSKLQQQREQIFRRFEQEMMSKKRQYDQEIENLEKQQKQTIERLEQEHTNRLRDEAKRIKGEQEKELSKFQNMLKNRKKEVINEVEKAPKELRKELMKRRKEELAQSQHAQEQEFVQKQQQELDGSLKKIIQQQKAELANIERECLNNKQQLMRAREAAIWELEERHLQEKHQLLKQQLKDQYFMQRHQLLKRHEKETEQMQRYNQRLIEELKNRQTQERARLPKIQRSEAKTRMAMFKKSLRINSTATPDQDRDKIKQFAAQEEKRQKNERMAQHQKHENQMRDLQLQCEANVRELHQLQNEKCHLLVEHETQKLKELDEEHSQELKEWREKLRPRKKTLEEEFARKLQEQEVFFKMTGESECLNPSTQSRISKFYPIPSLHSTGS

SMILES | Kd [1] | Kd [2] | Kd (Midasin) | Kd [3] | Kd [4] | Kd [5] | Kd [6] | Kd (Glycine--tRNA ligase) | Kd [7] | Kd [8] | Kd [9] | Kd [10]
COC(=O)N[C@@H](C)CNc1nccc(-c2cn(C(C)C)nc2-c2cc(Cl)cc(NS(C)(=O)=O)c2F)n1 [ENCORAFENIB] | > 30 µM (inactive) | > 30 µM (inactive) | > 30 µM (inactive) | > 30 µM (inactive) | > 30 µM (inactive) | > 30 µM (inactive) | > 30 µM (inactive) | > 30 µM (inactive) | > 30 µM (inactive) | > 30 µM (inactive) | > 30 µM (inactive) | > 30 µM (inactive)
O=C(Nc1ccc(-c2ccnc(Nc3ccc(N4CCOCC4)cc3)n2)cc1)C1CCCN1 (stereo unspecified) [XL-019] | > 30 µM (inactive) | > 30 µM (inactive) | > 30 µM (inactive) | > 30 µM (inactive) | > 30 µM (inactive) | > 30 µM (inactive) | > 30 µM (inactive) | > 30 µM (inactive) | > 30 µM (inactive) | > 30 µM (inactive) | 0.3 µM (active) | > 30 µM (inactive)
CCn1c(=O)c(-c2cc[nH]n2)cc2c(C)nc(N)nc21 [VOXTALISIB] | > 30 µM (inactive) | > 30 µM (inactive) | > 30 µM (inactive) | > 30 µM (inactive) | > 30 µM (inactive) | > 30 µM (inactive) | > 30 µM (inactive) | > 30 µM (inactive) | > 30 µM (inactive) | > 30 µM (inactive) | > 30 µM (inactive) | > 30 µM (inactive)
Cc1ccc(NC(=O)c2ccc(CN3CC[C@H](N(C)C)C3)c(C(F)(F)F)c2)cc1Nc1nccc(-c2cncnc2)n1 [BAFETINIB] | > 30 µM (inactive) | > 30 µM (inactive) | > 30 µM (inactive) | > 30 µM (inactive) | > 30 µM (inactive) | > 30 µM (inactive) | > 30 µM (inactive) | > 30 µM (inactive) | > 30 µM (inactive) | > 30 µM (inactive) | > 30 µM (inactive) | > 30 µM (inactive)
COc1ccc(-c2ccc3c(N4CCOC[C@@H]4C)nc(N4CCOC[C@@H]4C)nc3n2)cc1CO [AZD-8055] | > 30 µM (inactive) | > 30 µM (inactive) | > 30 µM (inactive) | > 30 µM (inactive) | > 30 µM (inactive) | > 30 µM (inactive) | > 30 µM (inactive) | > 30 µM (inactive) | > 30 µM (inactive) | > 30 µM (inactive) | > 30 µM (inactive) | > 30 µM (inactive)
N[C@@H]1CCCN(c2c(/C=C3\SC(=O)NC3=O)cccc2-c2ccccc2)C1 | > 30 µM (inactive) | > 30 µM (inactive) | > 30 µM (inactive) | > 30 µM (inactive) | > 30 µM (inactive) | > 30 µM (inactive) | > 30 µM (inactive) | > 30 µM (inactive) | > 30 µM (inactive) | > 30 µM (inactive) | > 30 µM (inactive) | > 30 µM (inactive)
CNC(=O)CN1CCC(Oc2cc3c(Nc4cccc(Cl)c4F)ncnc3cc2OC)CC1 [SAPITINIB] | > 30 µM (inactive) | > 30 µM (inactive) | > 30 µM (inactive) | > 30 µM (inactive) | > 30 µM (inactive) | > 30 µM (inactive) | > 30 µM (inactive) | > 30 µM (inactive) | > 30 µM (inactive) | > 30 µM (inactive) | > 30 µM (inactive) | > 30 µM (inactive)
COc1cc(CCc2cc(NC(=O)c3ccc(N4C[C@@H](C)N[C@@H](C)C4)cc3)n[nH]2)cc(OC)c1 [AZD-4547] | > 30 µM (inactive) | > 30 µM (inactive) | > 30 µM (inactive) | > 30 µM (inactive) | > 30 µM (inactive) | > 30 µM (inactive) | > 30 µM (inactive) | > 30 µM (inactive) | > 30 µM (inactive) | > 30 µM (inactive) | > 30 µM (inactive) | > 30 µM (inactive)
CNC(=O)c1cc(Oc2ccc(NC(=O)Nc3ccc(Cl)c(C(F)(F)F)c3)c(F)c2)ccn1 [REGORAFENIB] | > 30 µM (inactive) | > 30 µM (inactive) | > 30 µM (inactive) | > 30 µM (inactive) | > 30 µM (inactive) | > 30 µM (inactive) | > 30 µM (inactive) | > 30 µM (inactive) | > 30 µM (inactive) | > 30 µM (inactive) | > 30 µM (inactive) | > 30 µM (inactive)
COCCNCc1ccc(-c2cc3nccc(Oc4ccc(NC(=S)NC(=O)Cc5ccc(F)cc5)cc4F)c3s2)nc1 [GLESATINIB] | > 30 µM (inactive) | > 30 µM (inactive) | > 30 µM (inactive) | 0.6 µM | > 30 µM (inactive) | > 30 µM (inactive) | > 30 µM (inactive) | > 30 µM (inactive) | > 30 µM (inactive) | > 30 µM (inactive) | > 30 µM (inactive) | > 30 µM (inactive)
CCN1CCN(Cc2ccc(-c3cc4c(N[C@H](C)c5ccccc5)ncnc4[nH]3)cc2)CC1 [AEE-788] | > 30 µM (inactive) | 99.2 µM (active) | > 30 µM (inactive) | 7.98 µM (active) | > 30 µM (inactive) | > 30 µM (inactive) | > 30 µM (inactive) | > 30 µM (inactive) | > 30 µM (inactive) | > 30 µM (inactive) | 41.8 µM (active) | > 30 µM (inactive)
CN1CC[C@@H](c2c(O)cc(O)c3c(=O)cc(-c4ccccc4Cl)oc23)[C@@H]1CO | > 30 µM (inactive) | > 30 µM (inactive) | > 30 µM (inactive) | > 30 µM (inactive) | > 30 µM (inactive) | > 30 µM (inactive) | > 30 µM (inactive) | > 30 µM (inactive) | > 30 µM (inactive) | > 30 µM (inactive) | > 30 µM (inactive) | > 30 µM (inactive)
COc1cc(OC)c(/C=C/S(=O)(=O)Cc2ccc(OC)c(NCC(=O)O)c2)c(OC)c1 [RIGOSERTIB] | > 30 µM (inactive) | > 30 µM (inactive) | > 30 µM (inactive) | > 30 µM (inactive) | > 30 µM (inactive) | > 30 µM (inactive) | > 30 µM (inactive) | > 30 µM (inactive) | > 30 µM (inactive) | > 30 µM (inactive) | > 30 µM (inactive) | > 30 µM (inactive)
